Experimental data published in ChEMBL document CHEMBL1275482, “Point mutation in the group B streptococcal pbp2x gene conferring decreased susceptibility to beta-lactam antibiotics” (2008).
Converted amounts (≈) assume the structure as drawn.

Experiments:
[1] = test system: Streptococcus sp. 'group B'; assay: Antimicrobial activity against group B Streptococcus sp. 'group B' serotype IA isolate 3047-05 by broth dilution method; format: functional
[2] = test system: Streptococcus sp. 'group B'; assay: Antimicrobial activity against group B Streptococcus sp. 'group B' serotype IA isolate 5662-05 by broth dilution method; format: functional
[3] = test system: Streptococcus sp. 'group B'; assay: Antimicrobial activity against group B Streptococcus sp. 'group B' serotype IA isolate 6649-05 by broth dilution method; format: functional
[4] = test system: Streptococcus sp. 'group B'; assay: Antimicrobial activity against group B Streptococcus sp. 'group B' serotype IA isolate 7490-03 by broth dilution method; format: functional
[5] = test system: Streptococcus sp. 'group B'; assay: Antimicrobial activity against group B Streptococcus sp. 'group B' serotype IA isolate 9012-04 by broth dilution method; format: functional
[6] = test system: Streptococcus sp. 'group B'; assay: Antimicrobial activity against group B Streptococcus sp. 'group B' serotype IB isolate 5436-03 by broth dilution method; format: functional
[7] = test system: Streptococcus sp. 'group B'; assay: Antimicrobial activity against group B Streptococcus sp. 'group B' serotype II isolate 3776-04 by broth dilution method; format: functional
[8] = test system: Streptococcus sp. 'group B'; assay: Antimicrobial activity against group B Streptococcus sp. 'group B' serotype II isolate 9051-04 by broth dilution method; format: functional
[9] = test system: Streptococcus sp. 'group B'; assay: Antimicrobial activity against group B Streptococcus sp. 'group B' serotype III isolate 3444-99 by broth dilution method; format: functional
[10] = test system: Streptococcus sp. 'group B'; assay: Antimicrobial activity against group B Streptococcus sp. 'group B' serotype III isolate 7037-99 by broth dilution method; format: functional
[11] = test system: Streptococcus sp. 'group B'; assay: Antimicrobial activity against group B Streptococcus sp. 'group B' serotype III isolate 3789-04 expressing pbp2x Q557E mutant and multilocus sequence type ST19 by broth dilution method; format: functional
[12] = test system: Streptococcus sp. 'group B'; assay: Antimicrobial activity against group B Streptococcus sp. 'group B' serotype III isolate 6138-03 expressing pbp2x Q557E mutant and multilocus sequence type ST19 by broth dilution method; format: functional
[13] = test system: Streptococcus sp. 'group B'; assay: Antimicrobial activity against group B Streptococcus sp. 'group B' serotype III isolate 7507-03 expressing pbp2x Q557E mutant and multilocus sequence type ST19 by broth dilution method; format: functional
[14] = test system: Streptococcus sp. 'group B'; assay: Antimicrobial activity against group B Streptococcus sp. 'group B' serotype III isolate 8607-03 expressing pbp2x Q557E mutant and multilocus sequence type ST19 by broth dilution method; format: functional
[15] = test system: Streptococcus sp. 'group B'; assay: Antimicrobial activity against group B Streptococcus sp. 'group B' serotype IV isolate 3454-03 by broth dilution method; format: functional
[16] = test system: Streptococcus sp. 'group B'; assay: Antimicrobial activity against group B Streptococcus sp. 'group B' isolate 4214-03 by broth dilution method; format: functional
[17] = test system: Streptococcus sp. 'group B'; assay: Antimicrobial activity against group B Streptococcus sp. 'group B' isolate 6149-03 by broth dilution method; format: functional
[18] = test system: Streptococcus sp. 'group B'; assay: Antimicrobial activity against group B Streptococcus sp. 'group B' isolate 7368-04 by broth dilution method; format: functional
[19] = test system: Streptococcus sp. 'group B'; assay: Antimicrobial activity against group B Streptococcus sp. 'group B' serotype V isolate 3386-05 by broth dilution method; format: functional
[20] = test system: Streptococcus sp. 'group B'; assay: Antimicrobial activity against group B Streptococcus sp. 'group B' serotype V isolate 4857-03 by broth dilution method; format: functional
[21] = test system: Streptococcus sp. 'group B'; assay: Antimicrobial activity against group B Streptococcus sp. 'group B' serotype V isolate 5677-04 by broth dilution method; format: functional
[22] = test system: Streptococcus sp. 'group B'; assay: Antimicrobial activity against group B Streptococcus sp. 'group B' serotype V isolate 9171-03 by broth dilution method; format: functional
[23] = test system: Streptococcus sp. 'group B'; assay: Antimicrobial activity against group B Streptococcus sp. 'group B' serotype III isolate 8607-03 expressing pbp2x Q557E mutant and harboring empty vector by broth dilution method; format: functional
[24] = test system: Streptococcus sp. 'group B'; assay: Antimicrobial activity against group B Streptococcus sp. 'group B' serotype III isolate 8607-03 expressing pbp2x Q557E mutant and harboring plasmid expressing wild-type pbp2x by broth dilution method; format: functional
[25] = test system: Streptococcus sp. 'group B'; assay: Antimicrobial activity against group B Streptococcus sp. 'group B' serotype III isolate 8607 with chromosomal pbp2x(Q557E) replaced by wild-type pbp2x through allelic exchange by broth dilution method

## CC1(C)S[C@@H]2[C@H](NC(=O)[C@H](N)c3ccccc3)C(=O)N2[C@H]1C(=O)O [AMPICILLIN]
[1]
  MIC: 0.12 µg/mL (≈ 0.343 µM)
[2]
  MIC: 0.12 µg/mL (≈ 0.343 µM)
[3]
  MIC: 0.25 µg/mL (≈ 0.715 µM)
[4]
  MIC: 0.12 µg/mL (≈ 0.343 µM)
[5]
  MIC: 0.06 µg/mL (≈ 0.172 µM)
[6]
  MIC: 0.06 µg/mL (≈ 0.172 µM)
[7]
  MIC: 0.25 µg/mL (≈ 0.715 µM)
[8]
  MIC: 0.12 µg/mL (≈ 0.343 µM)
[9]
  MIC: 0.12 µg/mL (≈ 0.343 µM)
[10]
  MIC: 0.12 µg/mL (≈ 0.343 µM)
[11]
  MIC: 0.12 µg/mL (≈ 0.343 µM)
[12]
  MIC: 0.06 µg/mL (≈ 0.172 µM)
[13]
  MIC: 0.12 µg/mL (≈ 0.343 µM)
[14]
  MIC: 0.06 µg/mL (≈ 0.172 µM)
[15]
  MIC: 0.25 µg/mL (≈ 0.715 µM)
[16]
  MIC: 0.25 µg/mL (≈ 0.715 µM)
[17]
  MIC: 0.12 µg/mL (≈ 0.343 µM)
[18]
  MIC: 0.12 µg/mL (≈ 0.343 µM)
[19]
  MIC: 0.06 µg/mL (≈ 0.172 µM)
[20]
  MIC: 0.25 µg/mL (≈ 0.715 µM)
[21]
  MIC: 0.25 µg/mL (≈ 0.715 µM)
[22]
  MIC: 0.12 µg/mL (≈ 0.343 µM)
[23]
  MIC: 0.06 µg/mL (≈ 0.172 µM)
[24]
  MIC: 0.06 µg/mL (≈ 0.172 µM)
[25]
  MIC: 0.06 µg/mL (≈ 0.172 µM)

## Cc1nnc(SCC2=C(C(=O)O)N3C(=O)[C@@H](NC(=O)Cn4cnnn4)[C@H]3SC2)s1 [CEFAZOLIN]
[1]
  MIC: 0.25 µg/mL (≈ 0.55 µM)
[2]
  MIC: 0.25 µg/mL (≈ 0.55 µM)
[3]
  MIC: 0.5 µg/mL (≈ 1.1 µM)
[4]
  MIC: 0.25 µg/mL (≈ 0.55 µM)
[5]
  MIC: 0.25 µg/mL (≈ 0.55 µM)
[6]
  MIC: 1 µg/mL (≈ 2.2 µM)
[7]
  MIC: 0.25 µg/mL (≈ 0.55 µM)
[8]
  MIC: 0.25 µg/mL (≈ 0.55 µM)
[9]
  MIC: 0.25 µg/mL (≈ 0.55 µM)
[10]
  MIC: 0.25 µg/mL (≈ 0.55 µM)
[11]
  MIC: 1 µg/mL (≈ 2.2 µM)
[12]
  MIC: 0.5 µg/mL (≈ 1.1 µM)
[13]
  MIC: 0.5 µg/mL (≈ 1.1 µM)
[14]
  MIC: 0.5 µg/mL (≈ 1.1 µM)
[15]
  MIC: 0.5 µg/mL (≈ 1.1 µM)
[16]
  MIC: 0.5 µg/mL (≈ 1.1 µM)
[17]
  MIC: 0.25 µg/mL (≈ 0.55 µM)
[18]
  MIC: 0.5 µg/mL (≈ 1.1 µM)
[19]
  MIC: 0.12 µg/mL (≈ 0.264 µM)
[20]
  MIC: 0.5 µg/mL (≈ 1.1 µM)
[21]
  MIC: 1 µg/mL (≈ 2.2 µM)
[22]
  MIC: 0.25 µg/mL (≈ 0.55 µM)
[23]
  MIC: 16 µg/mL (≈ 35.2 µM)
[24]
  MIC: 2 µg/mL (≈ 4.4 µM)
[25]
  MIC: 2 µg/mL (≈ 4.4 µM)

## CO/N=C(\C(=O)N[C@@H]1C(=O)N2C(C(=O)O)=C(COC(C)=O)CS[C@H]12)c1csc(N)n1 [CEFOTAXIME]
[1]
  MIC: 0.06 µg/mL (≈ 0.132 µM)
[2]
  MIC: 0.06 µg/mL (≈ 0.132 µM)
[3]
  MIC: 0.12 µg/mL (≈ 0.263 µM)
[4]
  MIC: 0.12 µg/mL (≈ 0.263 µM)
[5]
  MIC: 0.06 µg/mL (≈ 0.132 µM)
[6]
  MIC: 0.25 µg/mL (≈ 0.549 µM)
[7]
  MIC: 0.12 µg/mL (≈ 0.263 µM)
[8]
  MIC: 0.06 µg/mL (≈ 0.132 µM)
[9]
  MIC: 0.06 µg/mL (≈ 0.132 µM)
[10]
  MIC: 0.12 µg/mL (≈ 0.263 µM)
[11]
  MIC: 0.25 µg/mL (≈ 0.549 µM)
[12]
  MIC: 0.25 µg/mL (≈ 0.549 µM)
[13]
  MIC: 0.12 µg/mL (≈ 0.263 µM)
[14]
  MIC: 0.25 µg/mL (≈ 0.549 µM)
[15]
  MIC: 0.25 µg/mL (≈ 0.549 µM)
[16]
  MIC: 0.12 µg/mL (≈ 0.263 µM)
[17]
  MIC: 0.06 µg/mL (≈ 0.132 µM)
[18]
  MIC: 0.06 µg/mL (≈ 0.132 µM)
[19]
  MIC: 0.06 µg/mL (≈ 0.132 µM)
[20]
  MIC: 0.06 µg/mL (≈ 0.132 µM)
[21]
  MIC: 0.12 µg/mL (≈ 0.263 µM)
[22]
  MIC: 0.12 µg/mL (≈ 0.263 µM)
[23]
  MIC: 0.25 µg/mL (≈ 0.549 µM)
[24]
  MIC: 0.015 µg/mL (≈ 0.0329 µM)
[25]
  MIC: 0.03 µg/mL (≈ 0.0659 µM)
